In PubChem BioAssay AID651642 (Sanford-Burnham Center for Chemical Genomics, 2012):

Assays:
H9c2 = assay: protection of cardiomyocytes from stress damage, SAR follow-up, cell-based, panel, H9c2 and HL-1, H2O2, 2-deoxyglucose, ATP luminescence (AID 651642)
HL-1 = assay: as above
[1] = H9c2/HL-1 cardiomyocyte 2-deoxyglucose damage, mean of runs, with 2-deoxyglucose, mean IC50 across panel
[2] = H9c2/HL-1 cardiomyocyte 2-deoxyglucose damage, run 1, with 2-deoxyglucose
[3] = H9c2/HL-1 cardiomyocyte 2-deoxyglucose damage, run 2, with 2-deoxyglucose
[4] = H9c2/HL-1 cardiomyocyte 2-deoxyglucose damage, run 3, with 2-deoxyglucose
[5] = H9c2/HL-1 cardiomyocyte 2-deoxyglucose damage, run 4, with 2-deoxyglucose
[6] = H9c2/HL-1 cardiomyocyte H2O2 oxidative damage, run 1, with H2O2
[7] = H9c2/HL-1 cardiomyocyte H2O2 oxidative damage, run 2, with H2O2
[8] = H9c2/HL-1 cardiomyocyte H2O2 oxidative damage, run 3, with H2O2
[9] = H9c2/HL-1 cardiomyocyte H2O2 oxidative damage, run 4, with H2O2

Row | SMILES | IC50 (H9c2; [1]) [µM] | IC50 (H9c2; [2]) [µM] | IC50 (H9c2; [3]) [µM] | IC50 (H9c2; [4]) [µM] | IC50 (H9c2; [5]) [µM] | IC50 (H9c2; [6]) [µM] | IC50 (H9c2; [7]) [µM] | IC50 (H9c2; [8]) [µM] | IC50 (H9c2; [9]) [µM] | IC50 (HL-1; [1]) [µM] | IC50 (HL-1; [2]) [µM] | IC50 (HL-1; [3]) [µM] | IC50 (HL-1; [4]) [µM] | IC50 (HL-1; [5]) [µM] | IC50 (HL-1; [6]) [µM] | IC50 (HL-1; [7]) [µM] | IC50 (HL-1; [8]) [µM] | IC50 (HL-1; [9]) [µM] | IC50 (H9c2; H9c2/HL-1 cardiomyocyte H2O2 oxidative damage, mean of runs, with H2O2, mean IC50 across panel) [µM]
1 | COc1cc(-c2cc(C(=O)Nc3cccc(C(C)=O)c3)c3cc(Br)ccc3n2)cc(OC)c1OC | > 79 | > 79 | > 79 | > 79 | > 79 | > 79 | 10.4 | > 79 | > 79 | > 79 | > 79 | > 79 | > 79 | > 79 | > 79 | 9.89 | 2.56 | 2.83 | 
2 | CCOC(=O)c1cccc(NC(=O)CNC(=O)c2cc(-c3cc(OC)c(OC)c(OC)c3)nc3ccccc23)c1 |  | 8.17 | 9.67 | > 79 | > 79 | 2.07 | 2.14 | > 79 | > 79 |  | 2.08 | 2.42 | > 79 | > 79 | 9.1 | 17.9 | > 79 | > 79 | 
3 | COC(=O)CNC(=O)c1cc(-c2cc(OC)c(OC)c(OC)c2)nc2ccccc12 | > 79 | > 79 | > 79 | > 79 | > 79 | > 79 | 39.1 | > 79 | > 79 | > 79 | > 79 | > 79 | > 79 | > 79 | > 79 | 41.2 | > 79 | > 79 | 
4 | COc1cccc(CNC(=O)CNC(=O)c2cc(-c3cc(OC)c(OC)c(OC)c3)nc3ccccc23)c1 |  | 38.6 | 40.8 | > 79 | > 79 | 5.74 | 7.73 | 4.38 | 5.17 | 15.2 | 9.87 | 10.8 | 17.7 | 22.6 | > 79 | 13.1 | 6.25 | 7.97 | 5.76
